Data: patent US20190183939A1, “CELL THERAPY USING MIDBRAIN-TYPE NEURAL STEM CELLS TREATED WITH VITAMIN C” (INDUSTRY-UNIVERSITY COOPERATION FOUNDATION HANYANG …, priority 2017, published 2019)

Assays:
Nurr1 and TH promoters = experiment: DIP-qPCR and ChIP-qPCR on Nurr1 and TH promoters; type: cell-based, rat
Excerpt: (§1) Foxa2 and Nurr1 binding sites were identified using the Jaspar database (http://jaspar.genereg.net/) using an 80% score threshold. Predicted Foxa2 and Nurr1 binding sites were coupled with phylogenetic footprinting to eliminate spurious predictions with specified position weight matrix (PWM) settings, as described in the following reference. [Sandelin, A., and Wasserman, W. W. (2004). Constrained binding site diversity within families of transcription factors enhances pattern discovery bioinformatics. Journal of molecular biology 338, 207-215] (Table 2). ChIP and DIP assays were carried out as described in the following reference. [Prolonged membrane depolarization enhances midbrain dopamine neuron differentiation via epigenetic histone modifications. Stem Cells 29, 1861-1873]. Briefly, chromatin or genomic DNA was sheared to an average of 200-500 bp in length using a sonication Bioruptor (BMS, Seoul, Korea) and immunoprecipitated using the antibodies listed in Table 1. Immunoprecipitated DNA fragments were collected using magnetic beads (Invitrogen), purified, and subjected to real-time PCR using the primers listed in Table 3. The comparative cycle threshold method was used to quantify the results. Data were normalized to the input DNA.

VM-NSCs = experiment: Cell growth curves and population doubling level during NSC expansion; type: cell-based, rat; details: up to P1
Procedure: (§2) The cell growth profile during NSC expansion with several cell passages was generated by counting the number of viable cells at the end of each passage. Cell expansion of each NSC passage was further estimated by the population doubling level (PDL, the level at which the number of cells is doubled), which was determined by log(N/NO)/log 2 (where N is the number of cells at the end of each passage; NO is the number of cells plated initially (1×10^5 cells/cm^2)). DA neuronal cell survival in the absence or presence of toxic insults (500-1000 uM of H2O2 or 6-OHDA) was determined by counting viable TH^+ cells after staining. General cell death and DNA damage were estimated by ethidium heterodimer 1 (EthD1) (Molecular Probes) and γH2AX staining, respectively.

TET = experiment: Tet enzyme activity in nuclear fraction; type: biochemical, rat; details: VC 200 μM, 4 days of proliferation, D0
Procedure: (§3) TET and JMJD3 activities were measured using Epigenase™ 5mC hydroxylase TET Activity/Inhibition Assay Kit and Epigenase™ JMJD3/UTX Demethylase Activity/Inhibition Assay Kit (Epigentek, Farmingdale, N.Y.), respectively. Briefly, cells from two 10 cm-dishes were harvested after 4 days of proliferation with or without VC (200 μM) treatment. Nuclear fractions were obtained from the cells using the EpiQuik nuclear extraction kit (Epigentek), and subjected to enzyme activity analyses.

VM-NSC cultures = experiment: Marker expression by immunocytochemistry and real-time PCR; type: cell-based, rat
Procedure: (§4) Cultured cells and cryosectioned brain slices were fixed with 4% paraformaldehyde (PFA), and blocked for 40 minutes in blocking solution (Blocking solution: 1% BSA+0.3% Triton X-100). For 5hmC and 5mC staining, the fixed cells were incubated with 2 N HCl for 20 minutes before the blocking reaction. The samples were incubated overnight at 4° C. in the blocking solution containing the primary antibodies listed in Supplemental Table 1. Secondary antibodies tagged with Alexa 488 (1:200, Invitrogen, Carlsbad, Calif.) and Cy3 (1:200, Jackson Immunoresearch Laboratories, West Grove, Pa.) were applied. Stained samples were mounted in Vectashield medium containing 40,6-diamidino-2-phenylindole (DAPI; Vector Laboratories, West Grove, Pa.) and analysed under an epifluorescence (Leica, Wetzlar, Germany) or confocal microscope (Leica TSP SP5).
(§5) Immunostained cells were counted in 10-20 random areas of each culture coverslip using an eyepiece grid at a magnification of 200×. Data are expressed as the mean±SEM of three to eight independent cultures. For every figure, statistical tests are justified as appropriate. Statistical comparisons were made using Student's t-test (unpaired) or one-way ANOVA followed by Tukey's post hoc analysis using SPSS® Statistics 21; IBM Inc. The relevant n, P-values, and statistical analysis methods are indicated in each figure legend.

[1] = test system: TH+ DA neurons differentiated from VM-NSCs; experiment: Morphologic and functional maturation of DA neurons; type: cell-based, rat; details: VC during expansion
Procedure: To estimate morphological maturation, total fiber lengths emanating from TH+DA neuronal cells were measured. The pre-synaptic activity of DA neurons was determined by measuring the levels of DA neurotransmitter released in the differentiated VM-NSC cultures. Media incubated for 2 days (differentiation day 13-15) were collected and used in the DA level determinations using an ELISA kit (BA E-5300, LDN). In addition, DA release evoked by membrane depolarization was estimated by incubating the cultures (at differentiation day 15) in fresh N2 media in the presence or absence of 56 mM KCl for 30 min. The evoked DA release was calculated by subtracting the DA release without KCl from the DA level with KCl.

[2] = test system: cultures differentiated from VM-NSCs; experiment: Differentiated cell survival/death, DNA damage and resistance against toxins; type: cell-based, rat
Procedure: as §2

[3] = test system: human TH promoter regions; experiment: DIP-qPCR/ChIP-qPCR on human TH promoter; type: cell-based
Excerpt: as §1

JMJD3 = experiment: Jmjd3 enzyme activity in nuclear fraction; type: biochemical, rat; details: VC 200 μM, 4 days of proliferation
Procedure: as §3

[4] = test system: TH+ DA neurons differentiated from VM-NSCs; experiment: Co-expression of midbrain-specific markers in differentiated TH+ DA neurons; type: cell-based, rat; details: P1 cultures treated with VC during expansion, D6
Procedure: as §4, §5

O=C1O[C@H]([C@@H](O)CO)C(O)=C1O [VC, L-ascorbic acid]
Nurr1 protein abundance at TH promoter (Nurr1 and TH promoters; ChIP-qPCR, D6): significantly greater | Foxa2 recruitment to Nurr1 promoter regions (Nurr1 and TH promoters; D2, culture pre-treated with VC): more abundantly recruited | 5hmC/5mC and H3K27m3/H3K9m3 at Nurr1 promoter regions (Nurr1 and TH promoters; from D0, compared to untreated controls): increased 5hmC levels with 5mC decreases and the decrease of H3K27m3/H3K9m3 | VM-NSC survival and proliferation (VM-NSCs): none of the anti-oxidant treatments tested, including VC, significantly altered | Tet enzyme activity in nuclear fractions (TET): greatly enhanced | percentage of cells expressing Foxa2 and Lmx1a (VM-NSC cultures; D0, VC during expansion): enhanced | percentage of Nurr1+ cells (VM-NSC cultures; D2, VC during proliferating NSC stage): greater | mRNA expression of GFAP and GFAP+ astrocyte yields (VM-NSC cultures; VC during proliferating VM-NSC stage): significantly enhanced | mRNA expression levels of TPH2 and GAD67 (VM-NSC cultures; VC during proliferation): no significant alteration | expression of Nestin, Sox2 and Otx2 markers (VM-NSC cultures; proliferating VM-NSC cultures): not altered | mRNA levels of Foxa2 and Lmx1a (VM-NSC cultures; real-time PCR, D0): enhanced | total fiber lengths per TH+ DA neuron ([1]; D15): 164 um | presynaptic DA neuronal function measured by DA release ([1]; medium 48 hr (D13-15) and KCl evoked 30 min): greater | synapsin+ puncta in TH+ DA neuron neurites ([1]; vs untreated control): more abundantly localized | DA neurons died after exposure to H2O2 or 6-OHDA ([2]; 500 and 1000 μM for 8 hours at D8, VC during expansion): remarkably lower proportions | γH2AX foci, % cells with >3 foci ([2]; D12 as printed, VC during expansion): 24.3% | cell death (EthD-1+ dead cell counting) ([2]; differentiation D8, VC during NSC expansion and passaging): considerably reduced | H3K9m3/H3K27m3 levels in human TH promoter regions [3]: undetectable | levels of 5hmC at human TH promoter regions ([3]; two consensus Nurr1 binding sites, D6): enhanced | Jmjd enzyme activity in nuclear fractions (JMJD3): increase | TH+ DA neurons expressing Foxa2 [4]: 98% | TH+ DA neurons expressing Lmx1a [4]: 91% | TH+ DA neurons expressing Nurr1 [4]: 93%
